In patent US7763596B2, “Selective glucocorticoid receptor agonists” (The University of Manchester, priority 2000, dated 2010):
Residue numbers refer to the chain shown, from its start.

Assays:
CEM-C7A cells = experiment: Apoptosis assay in CEM-C7A cells (viable cell count, MTS); assay type: cell-based, human
Experimental: The CEM-C7A cell line is a steroid sensitive clone of the CCRF-CEM cell line (ECACC 85112105). This is a T lymphoblastoid cell line with functional endogenous GR.
Apoptosis (programmed cell death) is mediated by a protein called Bax the transcription of which is primarily controlled by the GR in a ligand dependant manner. To measure the ability of a GR ligand to effect apoptosis a suitable cell line was incubated with ligand and a viable cell count was performed after three days.
CEM-C7A cells were plated out on to a 96well plate at 5×10^5/well. The steroids of FIGS. 1 and 2A were added immediately to generate a final concentration of 100 nM. After a three day incubation the live cell number in each well was assessed using Celltiter 96 Aqueous Non-Radioactive Cell Proliferation Assay (Promega). This assay is a calorimetric method for determining the number of viable cells in proliferation or chemosensitivity assays.
Briefly, the assay is composed of solutions of a novel tetrazolium compound (3-(4,5-dimethylthiazol-2-yl)-5-(3-carboxymethoxyphenyl)-2-(4-sulfophenyl)-2H-tetrazolium, MTS) and an electron coupling reagent (phenazine methosulfate; PMS). MTS is bioreduced by cells into a formazan product that is soluble in tissue culture medium. The absorbance of the formazan at 490 nm can be measured directly from 96 well assay plates without additional processing. The conversion of MTS into aqueous, soluble formazan is accomplished by dehydrogenase enzymes found in metabolically active cells. The quantity of formazan product as measured by the amount of 490 nm absorbance is directly proportional to the number of living cells in culture.

[1] = target: T1, progesterone receptor (PRB) (Homo sapiens, UniProt P06401); experiment: Progestogen activity assay using progesterone receptor transactivation; assay type: cell-based; conditions: unpublished data, conditions not given
T1 construct: expressed in transfected cells; host or cells: COS 7
T1 sequence (P06401 1-933): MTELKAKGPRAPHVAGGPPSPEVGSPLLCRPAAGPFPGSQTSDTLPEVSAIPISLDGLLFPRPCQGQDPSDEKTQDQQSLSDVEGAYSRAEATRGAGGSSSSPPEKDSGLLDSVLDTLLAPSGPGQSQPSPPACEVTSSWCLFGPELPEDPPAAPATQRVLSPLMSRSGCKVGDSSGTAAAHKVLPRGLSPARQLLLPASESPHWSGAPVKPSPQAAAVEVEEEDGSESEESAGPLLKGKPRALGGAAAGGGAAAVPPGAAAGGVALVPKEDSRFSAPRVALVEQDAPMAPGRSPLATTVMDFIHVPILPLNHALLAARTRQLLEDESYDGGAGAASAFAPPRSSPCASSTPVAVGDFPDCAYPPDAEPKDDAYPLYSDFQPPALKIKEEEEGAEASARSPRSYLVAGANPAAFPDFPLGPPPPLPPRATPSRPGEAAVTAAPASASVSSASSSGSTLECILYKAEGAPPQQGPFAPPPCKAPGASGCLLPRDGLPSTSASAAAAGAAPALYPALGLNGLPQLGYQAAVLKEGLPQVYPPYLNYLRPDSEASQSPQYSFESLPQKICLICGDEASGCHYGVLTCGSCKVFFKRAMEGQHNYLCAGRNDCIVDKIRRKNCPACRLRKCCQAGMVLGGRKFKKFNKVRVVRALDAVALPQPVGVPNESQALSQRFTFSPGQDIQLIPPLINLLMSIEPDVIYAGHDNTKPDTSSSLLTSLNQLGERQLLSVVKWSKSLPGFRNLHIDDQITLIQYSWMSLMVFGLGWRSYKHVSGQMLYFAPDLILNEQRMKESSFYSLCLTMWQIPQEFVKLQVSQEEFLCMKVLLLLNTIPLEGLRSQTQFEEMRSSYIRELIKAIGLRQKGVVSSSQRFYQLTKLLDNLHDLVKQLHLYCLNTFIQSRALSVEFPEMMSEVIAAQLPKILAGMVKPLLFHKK

glucocorticoid receptor = target: T2, glucocorticoid receptor (Homo sapiens, UniProt P04150); design: expressed in transfected cells; host or cells: COS 7 (African green monkey kidney, deficient in endogenous GR); conditions: in-vitro, other investigators; cited from earlier work
T2 sequence (P04150 1-777): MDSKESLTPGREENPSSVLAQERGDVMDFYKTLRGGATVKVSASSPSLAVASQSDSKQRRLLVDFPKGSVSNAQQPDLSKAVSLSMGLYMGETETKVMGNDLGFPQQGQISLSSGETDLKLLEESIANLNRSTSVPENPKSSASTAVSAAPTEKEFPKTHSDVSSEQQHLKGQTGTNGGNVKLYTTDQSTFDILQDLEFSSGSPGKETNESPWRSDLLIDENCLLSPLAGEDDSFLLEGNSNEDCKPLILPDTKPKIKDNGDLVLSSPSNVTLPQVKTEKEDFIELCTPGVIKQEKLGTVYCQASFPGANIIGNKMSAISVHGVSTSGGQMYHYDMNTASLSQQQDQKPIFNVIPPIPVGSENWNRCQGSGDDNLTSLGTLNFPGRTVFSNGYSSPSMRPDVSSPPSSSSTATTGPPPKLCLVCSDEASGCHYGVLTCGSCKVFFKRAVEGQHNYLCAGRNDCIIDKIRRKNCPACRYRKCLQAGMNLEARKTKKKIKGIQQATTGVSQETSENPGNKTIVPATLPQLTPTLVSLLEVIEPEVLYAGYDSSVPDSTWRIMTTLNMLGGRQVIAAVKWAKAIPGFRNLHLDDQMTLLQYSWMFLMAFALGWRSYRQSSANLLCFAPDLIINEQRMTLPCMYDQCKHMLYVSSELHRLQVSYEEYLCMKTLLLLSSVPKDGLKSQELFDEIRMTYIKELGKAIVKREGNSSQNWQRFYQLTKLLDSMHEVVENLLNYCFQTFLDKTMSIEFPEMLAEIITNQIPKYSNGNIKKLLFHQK

[2] = cited from earlier work
GR Tyr735phe = target: T3, GR Tyr735phe (Homo sapiens, UniProt P04150, Y735F); experiment: Transactivation of the MMTV promoter by mutant GR Tyr735phe; assay type: cell-based; conditions: 100 nM
T3 construct: expressed in transfected cells
T3 sequence (P04150 1-777 Y735F): T2 sequence (P04150 1-777) with Y735F

wild-type GR = target: T4, wild-type GR (Homo sapiens, UniProt P04150); experiment: Transactivation of the MMTV promoter by wild-type GR; assay type: cell-based; conditions: 100 nM
T4 construct: expressed in transfected cells
T4 sequence (P04150 1-777): T2 sequence (P04150 1-777)

GR Tyr735ser = target: T5, GR Tyr735ser (Homo sapiens, UniProt P04150, Y735S); experiment: Transactivation of the MMTV promoter by mutant GR Tyr735ser; assay type: cell-based; conditions: 100 nM
T5 construct: expressed in transfected cells
T5 sequence (P04150 1-777 Y735S): T2 sequence (P04150 1-777) with Y735S

GR Tyr735val = target: T6, GR Tyr735val (Homo sapiens, UniProt P04150, Y735V); experiment: Transactivation of the MMTV promoter by mutant GR Tyr735val; assay type: cell-based; conditions: 100 nM
T6 construct: expressed in transfected cells
T6 sequence (P04150 1-777 Y735V): T2 sequence (P04150 1-777) with Y735V

| Structure (SMILES) | effect on proliferation (CEM-C7A cells; CEM C7A cells) | induction of apoptosis (CEM-C7A cells; CEM C7A cells, 100 nM, three day incubation) | induction of apoptosis (CEM-C7A cells; unpublished data, conditions not given) | activation of the progesterone receptor [1] | selectivity for transrepression over transactivation (glucocorticoid receptor) [fold] | desired profile in-vivo [2] | induction of MMTV (GR Tyr735phe) [fold] | induction of MMTV (wild-type GR) [fold] | induction of MMTV (GR Tyr735ser) | induction of MMTV (GR Tyr735val) [fold] |
| --- | --- | --- | --- | --- | --- | --- | --- | --- | --- | --- |
| C[C@@H]1C[C@H]2[C@@H]3CCC4=CC(=O)C=C[C@]4(C)[C@@]3(F)[C@@H](O)C[C@]2(C)[C@H]1C(=O)CC#N [RU24858, reference compound] | impaired proliferation | did not induce significant apoptosis | does not induce apoptosis | activating the progesterone receptor | 2 | failed to show the desired profile in-vivo |  |  |  |  |
| C[C@]12CCC(=O)C=C1CC[C@@H]1[C@@H]2[C@@H](O)C[C@@]2(C)[C@H]1CC[C@]2(O)C(=O)CO [hydrocortisone] |  |  |  |  |  |  | 11 | 18 | failed to induce the reporter | 10.6 |
